{"source": "patent US4892826A", "about": "“Process for the preparation of urokinase derivatives” (Abbott Laboratories, priority 1988, dated 1990)", "key": {"[1]": {"target": "urokinase (Homo sapiens, UniProt P00749)", "assay": "biochemical", "source_text": "The optimal concentration of arginine can be approximated by its apparent Ki value for inhibition of urokinase as calculated from a Dixon plot. Dixon, M, Biochem. J., 55, 170-171 (1953). […] It is preferred that the concentration of arginine chosen will maximally saturate the urokinase molecule and confer a protective effect against the previously discussed over reduction of the disulfide bridges."}, "[2]": {"assay": "Urokinase amidolytic activity assay with chromogenic substrate S-2444", "assay_type": "biochemical", "settings": "isolated derivative", "experimental": "The reduction of the three disulfide bridges can be monitored, for example, by assays of the amidolytic activity of the urokinase, by titration of the available SH groups, or by reverse phase chromatography of the reduced urokinase. Preferably, the reduction is monitored by assaying the gain or loss of amidolytic activity of the urokinase.\nApproximately 1 to 2 mg/ml of the UK23 solution, in 0.1M phosphate (pH 7), was diluted with 1 volume of 0.5M arginine in water (pH 7). The reducing agent DTT, from a fresh stock solution of 1M in water, was added to adjust the final DTT concentration to 10 mM. […] The absorbance increase at 406 nm was monitored over a five minute period. One enzyme unit was defined as an increase in absorbance at 406 nm of 1 unit per minute."}}, "data": [{"compound": "N=C(N)NCCC[C@H](N)C(=O)O", "note": "[arginine]", "values": [{"measurement": "Ki", "setting": "[1]", "value": 70, "unit": "mM"}]}, {"compound": "GPRP-Amino hexanoic acid-LKFQCGQK Urokinase Derivative [Example 1]", "values": [{"measurement": "amidolytic activity, % of the initial UK23 value", "setting": "[2]; repeated procedures", "value": "80% to 100"}]}, {"compound": "Heparin-LKFQCGQK Urokinase Derivative [Example 4]", "values": [{"measurement": "active (amidolytic activity of resulting derivative)", "setting": "[2]", "value": 100, "unit": "%"}]}]}
